From US7842695B2, “Substituted pyrazole compounds” (Merck Patent GmbH, priority 2003, dated 2010)

Target: 5-HT2A receptors (UniProt P14842)
Test: in-vitro affinity to 5-HT2A receptors, [3H]ketanserine displacement (Example A1)
Assay type: binding
Description: The 5-HT2A receptors are exposed both to [^3H]ketanserine (a substance known for its affinity to the receptor) and also to the test compound. The decrease in the affinity of [^3H]ketanserine to the receptor is an indication of the affinity of the test substance to the 5-HT2A receptor.

SMILES	IC50
CN1CCN(c2cnn(-c3ccc(-c4ccc5c(c4)OCO5)cc3)c2-c2ccccc2)CC1 [Example 565, 1-[1-(4-Benzo-1,3-dioxol-5-ylphenyl)-5-phenyl-1H-pyrazol-4-yl]-4-methylpiperazine]	0.01 µM
OCC1CCN(Cc2cnn(-c3ccc(-c4ccc(F)cc4)cc3)c2-c2ccco2)C1 (stereo not drawn) [Example 567, {1-[1-(4′-Fluorobiphenyl-4-yl)-5-furan-2-yl-1H-pyrazol-4-ylmethyl]pyrrolidin-3-yl}methanol]	0.011 µM
CC(C)(C)OC(=O)N1CCN(Cc2cnn(-c3ccc(-c4ccc5c(c4)OCCO5)cc3)c2-c2ccco2)CC1 [Example 572, tert-Butyl 4-{1-[4-(2,3-dihydrobenzo-1,4-dioxin-6-yl)phenyl]-5-furan-2-yl-1H-pyrazol-4-ylmethyl}piperazine-1-carboxylate]	0.012 µM
CN1CCC(N(C)Cc2cnn(-c3ccc(-c4ccc(F)cc4)cc3)c2-c2ccco2)C1 (stereo not drawn) [Example 575, [1-(4′-Fluorobiphenyl-4-yl)-5-furan-2-yl-1H-pyrazol-4-ylmethyl]methyl-(1-methyl-3-pyrrolidinyl)amine]	0.0147 µM
Cc1noc(C)c1-c1c(CN(C)C)cnn1-c1ccc(-c2ccc(F)cc2)cc1 [Example 577, [5-(3,5-Dimethylisoxazol-4-yl)-1-(4′-fluorobiphenyl-4-yl)-1H-pyrazol-4-ylmethyl]dimethylamine]	0.016 µM
COCCCNCc1cnn(-c2ccc(-c3ccc(F)cc3)cc2)c1-c1ccco1 [Example 580, [1-(4′-Fluorobiphenyl-4-yl)-5-furan-2-yl-1H-pyrazol-4-ylmethyl]-(3-methoxypropyl)amine]	0.016 µM
Fc1ccc(-c2ccc(-n3ncc(CNC4CC4)c3-c3ccco3)cc2)cc1 [Example 582]	0.017 µM
CC1CCCN1Cc1cnn(-c2ccc(-c3ccc4c(c3)OCCO4)cc2)c1-c1ccco1 (stereo not drawn) [Example 594, 1-[4-(2,3-Dihydrobenzo-1,4-dioxin-6-yl)phenyl]-5-furan-2-yl-4-(2-methylpyrrolidin-1-ylmethyl)-1H-pyrazole]	0.021 µM
CCN(C)Cc1cnn(-c2ccc(-c3ccc(F)cc3)cc2)c1-c1c(C)noc1C [Example 597, [5-(3,5-Dimethylisoxazol-4-yl)-1-(4′-fluorobiphenyl-4-yl)-1H-pyrazol-4-ylmethyl]ethylmethylamine]	0.023 µM
COc1cccc(-c2c(CN3CCC(O)C3)cnn2-c2ccc(-c3ccc(F)cc3)cc2)c1 (stereo not drawn) [Example 598, 1-[1-(4′-Fluorobiphenyl-4-yl)-5-(3-methoxyphenyl)-1H-pyrazol-4-ylmethyl]pyrrolidin-3-ol]	0.024 µM
CN1CCN(Cc2cnn(-c3ccc(-c4ccccc4F)cc3)c2-c2ccco2)CC1 [Example 599, 1-[1-(2′-Fluorobiphenyl-4-yl)-5-furan-2-yl-1H-pyrazol-4-ylmethyl]-4-methylpiperazine]	0.025 µM
COCCNCc1cnn(-c2ccc(-c3ccc(F)cc3)cc2)c1-c1ccco1 [Example 603, [1-(4′-Fluorobiphenyl-4-yl)-5-furan-2-yl-1H-pyrazol-4-ylmethyl]-(2-methoxyethyl)amine]	0.026 µM
CCN(CC)CCCNCc1cnn(-c2ccc(-c3ccc(F)cc3)cc2)c1-c1ccco1 [Example 609, N,N-Diethyl-N′-[1-(4′-fluorobiphenyl-4-yl)-5-furan-2-yl-1H-pyrazol-4-ylmethyl]propane-1,3-diamine]	0.029 µM
O=C1CN(Cc2cnn(-c3ccc(-c4ccc5c(c4)OCO5)cc3)c2-c2ccco2)CCN1 [Example 612, 4-[1-(4-Benzo-1,3-dioxol-5-ylphenyl)-5-furan-2-yl-1H-pyrazol-4-ylmethyl]piperazin-2-one]	0.031 µM
OCCCCNCc1cnn(-c2ccc(-c3ccc(F)cc3)cc2)c1-c1ccco1 [Example 617, 4-{[1-(4′-Fluorobiphenyl-4-yl)-5-furan-2-yl-1H-pyrazol-4-ylmethyl]amino}butan-1-ol]	0.032 µM
CC1CCCN1Cc1cnn(-c2ccc(-c3cccc(F)c3)cc2)c1-c1ccco1 (stereo not drawn) [Example 620, 1-(3′-Fluorobiphenyl-4-yl)-5-furan-2-yl-4-(2-methylpyrrolidin-1-ylmethyl)-1H-pyrazole]	0.034 µM
Fc1ccc(-c2ccc(-n3ncc(CNC4CN5CCC4CC5)c3-c3ccco3)cc2)cc1 (stereo not drawn) [Example 621]	0.034 µM
CCCCN(Cc1cnn(-c2ccc(-c3ccc(F)cc3)cc2)c1-c1ccco1)Cc1cnn(-c2ccc(-c3ccc(F)cc3)cc2)c1-c1ccco1 [Example 622, Butylbis-[1-(4′-fluorobiphenyl-4-yl)-5-furan-2-yl-1H-pyrazol-4-ylmethyl]amine]	0.034 µM
COc1cccc(-c2c(CN3CCN(C)CC3)cnn2-c2ccc(-c3ccc(F)cc3)cc2)c1 [Example 627, 1-[1-(4′-Fluorobiphenyl-4-yl)-5-(3-methoxyphenyl)-1H-pyrazol-4-ylmethyl]-4-methylpiperazine]	0.036 µM
CC(C)CCNCc1cnn(-c2ccc(-c3ccc(F)cc3)cc2)c1-c1ccco1 [Example 628, [1-(4′-Fluorobiphenyl-4-yl)-5-furan-2-yl-1H-pyrazol-4-ylmethyl]-(3-methylbutyl)amine]	0.036 µM
Fc1ccccc1-c1c(CCN2CCOCC2)cnn1-c1ccc(-c2ccccc2)cc1 [Example 632, 4-{2-[1-Biphenyl-4-yl-5-(2-fluorophenyl)-1H-pyrazol-4-yl]ethyl}morpholine]	0.04 µM
CC(C)(C)OC(=O)N1CCN(Cc2cnn(-c3ccc(-c4cccc(F)c4)cc3)c2-c2ccco2)CC1 [Example 638, tert-Butyl 4-[1-(3′-Fluorobiphenyl-4-yl)-5-furan-2-yl-1H-pyrazol-4-ylmethyl]piperazine-1-carboxylate]	0.042 µM
COc1ccc(-c2ccc(-n3ncc(CNCc4ccccn4)c3-c3ccco3)cc2)cc1 [Example 641, [5-Furan-2-yl-1-(4′-methoxybiphenyl-4-yl)-1H-pyrazol-4-ylmethyl]pyridin-2-ylmethylamine]	0.046 µM

More lines, in order of falling IC50, values ahead:

IC50	SMILES
0.042 µM	CCC(CC)CNCc1cnn(-c2ccc(-c3ccc(OC)cc3)cc2)c1-c1ccco1 [Example 637]
0.039 µM	NC1CCN(Cc2cnn(-c3ccc(-c4ccc5c(c4)OCO5)cc3)c2-c2ccco2)CC1 [Example 631, 1-[1-(4-Benzo-1,3-dioxol-5-ylphenyl)-5-furan-2-yl-1H-pyrazol-4-ylmethyl]piperidin-4-ylamine]
0.037 µM	CN1CCN(Cc2cnn(-c3ccc(-c4ccc(F)cc4)cc3)c2-c2ccncc2)CC1 [Example 629, 1-[1-(4′-Fluorobiphenyl-4-yl)-5-pyridin-4-yl-1H-pyrazol-4-ylmethyl]-4-methylpiperazine]
0.032 µM	COc1ccc(-c2ccc(-n3ncc(CNCc4ccncc4)c3-c3ccco3)cc2)cc1 [Example 615, [5-Furan-2-yl-1-(4′-methoxybiphenyl-4-yl)-1H-pyrazol-4-ylmethyl]pyridin-4-ylmethylamine]
0.032 µM	CC1CCCN1Cc1cnn(-c2ccc(-c3ccc4c(c3)OCO4)cc2)c1-c1ccco1 (stereo not drawn) [Example 616, 1-(4-Benzo-1,3-dioxol-5-ylphenyl)-5-furan-2-yl-4-(2-methylpyrrolidin-1-ylmethyl)-1H-pyrazole]
0.031 µM	CC(C)(C)OC(=O)NC1CCN(Cc2cnn(-c3ccc(-c4ccc5c(c4)OCO5)cc3)c2-c2ccco2)CC1 [Example 611, tert-Butyl {1-[1-(4-benzo-1,3-dioxol-5-ylphenyl)-5-furan-2-yl-1H-pyrazol-4-ylmethyl]piperidin-4-yl}carbamate]
0.029 µM	CC(C)(C)OC(=O)NC1CCN(Cc2cnn(-c3ccc(-c4cccc(F)c4)cc3)c2-c2ccco2)CC1 [Example 608, tert-Butyl {1-[1-(3′-fluorobiphenyl-4-yl)-5-furan-2-yl-1H-pyrazol-4-ylmethyl]piperidin-4-yl}carbamate]
0.026 µM	Fc1ccc(-c2ccc(-n3ncc(CNCCc4ccccn4)c3-c3ccco3)cc2)cc1 [Example 604, [1-(4′-Fluorobiphenyl-4-yl)-5-furan-2-yl-1H-pyrazol-4-ylmethyl]-(2-pyridin-2-ylethyl)amine]
0.02 µM	O=C(c1ccccc1)C1CCCN(Cc2cnn(-c3ccc(-c4ccc(F)cc4)cc3)c2-c2ccco2)C1 (stereo not drawn) [Example 593, 1-{1-[1-(4′-Fluorobiphenyl-4-yl)-5-furan-2-yl-1H-pyrazol-4-ylmethyl]piperidin-3-yl}-1-phenylmethanone]
0.018 µM	COc1ccc(-c2ccc(-n3ncc(CN)c3-c3ccco3)cc2)cc1 [Example 584, C-[5-Furan-2-yl-1-(4′-methoxybiphenyl-4-yl)-1H-pyrazol-4-yl]methylamine]
0.017 µM	Fc1ccc(CCN2CCC(NCc3cnn(-c4ccc(-c5ccc(F)cc5)cc4)c3-c3ccco3)C2)cc1 (stereo not drawn) [Example 581, [1-(4′-Fluorobiphenyl-4-yl)-5-furan-2-yl-1H-pyrazol-4-ylmethyl]-{1-[2-(4-fluorophenyl)ethyl]pyrrolidin-3-yl}amine]
0.016 µM	CN1CCN(c2cnn(-c3ccc(-c4cccc(F)c4)cc3)c2-c2ccccc2)CC1 [Example 578, 1-[1-(3′-Fluorobiphenyl-4-yl)-5-phenyl-1H-pyrazol-4-yl]-4-methylpiperazine]
0.016 µM	CN(CCc1ccccc1)Cc1cnn(-c2ccc(-c3ccc(F)cc3)cc2)c1-c1ccco1 [Example 579, [1-(4′-Fluorobiphenyl-4-yl)-5-furan-2-yl-1H-pyrazol-4-ylmethyl]methylphenethylamine]
0.013 µM	CN1CCN(Cc2cnn(-c3ccc(-c4ccc(F)cc4)cc3)c2-c2c(F)cccc2F)CC1 [Example 573, 1-[5-(2,6-Difluorophenyl)-1-(4′-fluorobiphenyl-4-yl)-1H-pyrazol-4-ylmethyl]-4-methylpiperazine]
0.011 µM	CC(C)(C)OC(=O)NC1CCN(Cc2cnn(-c3ccc(-c4ccc5c(c4)OCCO5)cc3)c2-c2ccco2)CC1 [Example 566, tert-Butyl (1-{1-[4-(2,3-dihydrobenzo-1,4-dioxin-6-yl)phenyl]-5-furan-2-yl-1H-pyrazol-4-ylmethyl}piperidin-4-yl)carbamate]
0.011 µM	Fc1ccc(-c2ccc(-n3ncc(CNC4CCCC4)c3-c3ccco3)cc2)cc1 [Example 568, Cyclopentyl-[1-(4′-fluorobiphenyl-4-yl)-5-furan-2-yl-1H-pyrazol-4-ylmethyl]amine]
